Measurements: patent US8198335B2, “Cosmetic material” (Parahermosa Co., Ltd., priority 2009, dated 2012)

Assay: Check for precipitation of crystal in 1:1 mixtures of oil solution and diethyl amino hydroxy benzoyl hexyl benzoate kept at 5° C.
Format: physicochemical
Parameters: key to Evaluation results 1 week / Evaluation results Following day / Evaluation results Same day: X: Evaluation results accompanied by an x in Table 2 indicate that crystal had precipitated at the applicable point in time
Details: 1:1 by mass with diethyl amino hydroxy benzoyl hexyl benzoate, heated to 80° C., cooled, kept at 5° C.; checked after half a day
Source text: Evaluation results accompanied by an x in Table 2 indicate that crystal had precipitated at the applicable point in time.

Evaluation results Same day	Compound
X	CCCCCCCC(=O)OCC(C)(C)COC(=O)CCCCCCC [Component 53, Neopentyl glycol dicaprylate]
X	CCCCCCCCOC(=O)OCCCCCCCC [Component 57, Dicapryl carbonate]
X	COc1ccc(C(=O)c2ccccc2)c(O)c1 [Component 59, Benzophenone-3]
X	CCCCCCCCCCCCCCCCCCO [Component 61, Stearyl alcohol]
X	Cyclomethicone [Component 64]

Second part, the compound before the results:

Compound	Evaluation results Same day
CC(C)CCCC(C)CCCC(C)CCCCC(C)CCCC(C)CCCC(C)C (centres unmarked) [Component 26, Squalane]	X
OCC(O)CO [Component 31, Glycerin]	X
CCCCCCCCCCCCCCCC(=O)OC(C)C [Component 33, Isopropyl palmitate]	X
CCCCCCCCCCCCCC(=O)OCC(CCCCCCCC)CCCCCCCCCC (centres unmarked) [Component 34, Octyl dodecyl myristate]	X
DPG [Component 22]	X

Same assay, conditions: 1:1 by mass with diethyl amino hydroxy benzoyl hexyl benzoate, kept at 5° C.; checked after one day

Evaluation results Following day	Compound
X	CCCCC(CC)C(=O)OCC(CC)(CO)COCC(CC)(COC(=O)C(CC)CCCC)COC(=O)C(CC)CCCC (centres unmarked) [Component 44, Ditrimethylol propane triethyl hexanoate]
X	CC(C)CCCCCCCCCCCCCCCOC(=O)CC(O)C(=O)OCCCCCCCCCCCCCCCC(C)C (centres unmarked) [Component 47, Diisostearyl malate]
X	CCCCC(CC)C(=O)OCC(COC(=O)C(CC)CCCC)OC(=O)C(CC)CCCC (centres unmarked) [Component 50, Triethyl hexanoin]
X	CCCCC(CC)C(=O)OCC(C)(C)COC(=O)C(CC)CCCC (centres unmarked) [Component 51, Neopentyl glycol diethyl hexanoate]
X	CCCCCCCCCCC(CCCCCCCC)COC(=O)C(C)O (centres unmarked) [Component 52, Octyl dodecyl lactate]
X	CCCCCCCCOCCCCCCCC [Component 58, Dioctyl ether]
X	C12-15 alkyl benzoate [Component 62]
X	Diglyceryl tetraisostearate [Component 49]
X	Ditrimethylol propane (isostearate/sebacate) [Component 46]
X	Sorbitan isostearate [Component 36]
X	Sorbitan sesquioleate [Component 35]

More lines, now with the values behind:

Compound	Evaluation results Following day
CC(C)CCCCCCCCCCOC(=O)CCCCCC(C)C [Component 17, Isotridecyl isononanate]	X
CCO [Component 18, Ethanol (99%)]	X
CCCCCCCCCCCCCCCCOC(=O)C(CC)CCCC (centres unmarked) [Component 19, Cetyl ethyl hexanoate]	X
CCCCCCCCCCCCCCCC(=O)OCC(CC)CCCC (centres unmarked) [Component 20, Ethyl hexyl palmitate]	X
CCCCC(CC)C(=O)OCC(COC(=O)C(CC)CCCC)OC(=O)C(CC)CCCC (centres unmarked) [Component 21, Glycerin tri 2-ethyl hexanoate]	X
CC(C)CCCCCCOC(=O)CCCCCC(C)C [Component 25, Isononyl isononanate]	X
CCCCCCCCCCC(CO)CCCCCCCC (centres unmarked) [Component 29, Octyl dodecanol]	X
CCCCCCCC(=O)OCC(C)OC(=O)CCCCCCC (centres unmarked) [Component 30, Propylene glycol dicaprylate]	X
CC(O)CCO (centres unmarked) [Component 32, 1,3-BG]	X
DPG [Component 22]	X
Erythrityl triethyl hexanoate [Component 45]	X
Glycerin tri (capryl/caprate) [Component 28]	X

Same assay, conditions: 1:1 by mass with diethyl amino hydroxy benzoyl hexyl benzoate, kept at 5° C.; checked after one week

Evaluation results 1 week	Compound
X	CCCCCCC(O)CCCCCCCCCCC(=O)OCC(CC)CCCC (centres unmarked) [Component 16, Octyl hydroxyl stearate (monomer)]
X	CCCCC(CC)COC(=O)/C=C/c1ccc(OC)cc1 (centres unmarked) [Component 56, Ethyl hexyl para-methoxy cinnamate]

Same assay, conditions: 1:1 by mass with diethyl amino hydroxy benzoyl hexyl benzoate, kept at 5° C.; checked after six months

Evaluation results 6 months	Compound
◯	Octyl hydroxyl stearate oligomer (dimmer) [Component 1]
◯	Octyl hydroxyl stearate oligomer (heptamer) [Component 6]
◯	Octyl hydroxyl stearate oligomer (hexamer) [Component 5]
◯	Octyl hydroxyl stearate oligomer (pentamer) [Component 4]

Compound	Evaluation results 6 months
Octyl hydroxyl stearate oligomer (tetramer) [Component 3]	◯
Octyl hydroxyl stearate oligomer (trimer) [Component 2]	◯

Same assay, conditions: summary of Table 2, 5° C.

precipitation of crystal / stability of the 1:1 mixture, in words	Compound
crystal precipitated after one week	CCCCCCC(O)CCCCCCCCCCC(=O)OCC(CC)CCCC (centres unmarked) [Component 16, Octyl hydroxyl stearate (monomer)]

Assay: Low-temperature behaviour of octyl hydroxy stearate monomer and oligomers (clouding point, liquid state)
Format: physicochemical
Details: not given
Source text: A monomer of octyl hydroxy stearate has problems in terms of stable dissolution of poorly soluble substances, while an octamer and above lead to poor self-condensing property of 12-hydroxy stearate and result in a broad distribution of molecular weight, which in turn causes unstable quality, solidification at temperatures below zero, and undesirable touch and other tactile senstations. For example, a monomer of octyl hydroxy stearate is a low-viscosity oil which is non-sticky and has a clean touch and also offers excellent oxidization stability. However, its clouding point is high, or at approx. 20° C., and thus crystal generates in the solution or the entire formulation solidifies in winter, resulting in markedly lower feeling of use and other problems such as the formulation not coming out of the container due to an increased viscosity. An octamer has similar problems. A dimer of octyl hydroxy stearate is structurally a monomer with one more molecule unit. However, it has substantially different chemical properties.

clouding point	Compound
approx. 20 °C	CCCCCCC(O)CCCCCCCCCCC(=O)OCC(CC)CCCC (centres unmarked) [Component 16, Octyl hydroxyl stearate (monomer)]

Same assay, conditions: 5° C.

state at 5° C.	Compound
remains permanently liquid	Octyl hydroxyl stearate oligomer (dimmer) [Component 1]

Assay: not given
Details: solvent 2-ethyl hexyl para-methoxy cinnamate; cited from earlier work

Compound	dissolves in 2-ethyl hexyl para-methoxy cinnamate [%]
CCCCCCOC(=O)c1ccccc1C(=O)c1ccc(N(CC)CC)cc1O [diethyl amino hydroxy benzoyl hexyl benzoate]	42

Same assay, conditions: solvent cyclomethicone (volatile silicone); cited from earlier work

Compound	dissolves in cyclomethicone [%]
CCCCCCOC(=O)c1ccccc1C(=O)c1ccc(N(CC)CC)cc1O [diethyl amino hydroxy benzoyl hexyl benzoate]	0.4

Same assay, conditions: solvent octyl para-methoxy cinnamate; cited from earlier work

Compound	dissolves in octyl para-methoxy cinnamate
CCCCCCOC(=O)c1ccccc1C(=O)c1ccc(N(CC)CC)cc1O [diethyl amino hydroxy benzoyl hexyl benzoate]	up to 42 percent by mass
